Bridge positions count the residues as written; N and C are the ends. Square brackets hold non-standard residues; d marks the D form. Peptide text beside a SMILES is read from it. * marks the point of attachment. Octanoyl(7-Me) = CC(C)CCCCCC(=O)*; dOrn = NCCC[C@@H](N)C(=O)O; Orn = NCCC[C@H](N)C(=O)O; Butyryl = CCCC(=O)*
Columns and labels:
E. coli ATCC 25922 = type: cell-based, Escherichia coli; conditions: ATCC 25922, 18 h
Experimental: (§1) The minimum inhibitory concentrations (MICs) of brevicidine and laterocidine analogues were determined against a panel of clinically relevant ESKAPE pathogens; Escherichia coli (E. coli), Klebsiella pneumoniae (K. pneumoniae), Acinetobacter baumannii (A. baumannii), Pseudomonas aeruginosa (P. aeuroginosa) and Staphylococcus aureus (S. aureus), which cause the majority of nosocomial infections in the United States.[16] […] In this resistance mechanism, the polymyxin target (lipid A) is modified, reducing binding affinity. For this reason, a strain of colistin-resistant E. coli carrying the mcr-1 gene was also included in the panel. […]
(§2) IV. Antimicrobial testing
(§3) All minimum inhibitory concentrations (MICs) were determined according to Clinical and Standards Laboratory Institute (CLSI) guidelines. Blood agar plates were inoculated with glycerol stocks of E. coli ATCC 25922, K. pneumoniae ATCC 13883, A. baumannii ATCC 17961, P. aeruginosa PAO1 and S. aureus USA300. The inoculated agar plates were then incubated for 16 h at 37 °C . Individually grown colonies were subsequently used to inoculate 5 mL aliquots of TSB that were then incubated at 37 °C with shaking at 220 rpm. E. coli 25922 MCR-1 glycerol stock was used to inoculate 5 mL of TSB supplemented with kanamycin that was then incubated for 16 h at 37 °C with shaking at 220 rpm. The next day the culture was diluted 100 fold in TSB supplemented with kanamycin and incubated at 37 °C with shaking at 220 rpm. In parallel, the lipopeptide antibiotics DMSO stocks to be assessed were serially diluted with MHB in polypropylene 96-well plates (50 µL in each well). Colistin sulfate stocks were dissolved in water before being diluted with MHB. Aliquots of the inoculated TSB were incubated until an OD600 of around 0.5 was reached. The bacterial suspensions were then diluted with MHB (2 x 10^5 CFU mL-1) and added to the microplates containing the test compounds (50 µL to each well). The well-plates were sealed with an adhesive membrane and after 18 h of incubation at 37 °C with shaking at 600 rpm, the wells were visually inspected for bacterial […]
(§4) growth. MIC values reported are based on three technical replicates and defined as the lowest concentration of the compound that prevented visible growth of bacteria. […]
(§5) The values obtained from a read-out at 415 nm were corrected for background (negative control) and transformed to a percentage relative to the positive control.
(§6) VI. HPLC and HRMS analysis of peptides
(§7) Peptide Name Chemical Calcd Mass found Calcd Overall […]

E. coli ATCC 25922 MCR-1 = type: cell-based, Escherichia coli; conditions: colistin-resistant strain carrying mcr-1; CLSI broth microdilution in MHB, 18 h at 37 °C, visual inspection; three technical replicates
Experimental: as §1
Colisitin sulfate was purchased from Activate Scientific. Kanamycin monosulfate was purchased from MP Biomedicals. E. coli ATCC 25922, S. aureus USA300 (ATCC BAA1717), K. pneumoniae ATCC 13883 and A. baumannii ATCC 17961 belong to the American Type Culture Collection (ATCC). P. aeruginosa PAO1 was kindly provided by L.H.C. Quarles Van Ufford, Utrecht University, Utrecht, The Netherlands. E. coli ATCC 25922 MCR-1 was transfected in house using the pGDP2-MCR1 plasmid kindly provided by Yong-Xin Li, The University of Hong Kong, Hong Kong, China. Sheep blood agar plates (Ref. PB5039A) were purchased from Thermo Scientific. Tryptic soy broth (Ref. 02-200-500) was purchased from Scharlab. Mueller-Hinton broth (Ref. X927.1) was purchased from Carl Roth. Polypropylene 96-wells plates (Ref. 3879) were purchased from Corning. […]
(10.0 mL). 2-Chlorotrityl (CT) chloride resin (2.00 g, 0.81 mmol g-1) and DIPEA (420 µL, 2.40 mmol) were added. […]
A gradient […]
method for C14 - C16 laterocidine was employed, starting at 100% solvent A for 2 min, ramping up to 70 % solvent B over 45 min, ramping up to 100% solvent B over 1 min, remaining there for 6 min before ramping down to 100% solvent A and remaining there for 5 min. High resolution mass spectrometry (HRMS) spectra of brevicidine peptides were recorded by Analytical Services and Environmental Projects (ASEP) at Queen’s University Belfast on a Waters LCT Premier ToF mass spectrometer using the electrospray ionisation (ESI) technique. HRMS spectra of laterocidine peptides were performed on a Thermo Scientific Dionex UltiMate 3000 HPLC system with a Phenomenex Kinetex C18 (2.6 µm, 2.1 x 150 mm) column at 35 °C and equipped with a diode array detector. The following solvent system, at a flow rate of 0.3 mL/min, was used: solvent A = 0.1% formic acid in water, solvent B = 0.1% formic acid in acetonitrile. A gradient method was employed, starting at 95 % solvent A and 5 % solvent B for 1 min, ramping up to 95 % solvent B over 9 min, ramping up to 98 % solvent B over 1 min, remaining there for 1 min before ramping back down to 95 % solvent A over 2 min and remaining there for 1 min.
The system was connected to a Bruker micrOTOF-Q II mass spectrometer (ESI ionization) calibrated internally with sodium […]
as §2
as §3, with “MHB.” for “MHB. Aliquots of the inoculated TSB were incubated until an OD600 of around 0.5 was reached. The bacterial suspensions were then diluted with MHB (2 x 10^5 CFU mL-1) and added to the microplates containing the test compounds (50 µL to each well). The well-plates were sealed with an adhesive membrane and after 18 h of incubation at 37 °C with shaking at 600 rpm, the wells were visually inspected for bacterial”

K. pneumoniae ATCC 13883 = type: cell-based, Klebsiella pneumoniae; conditions: ATCC 13883, 18 h
Experimental: as §1, §2, §3, §4, §5, §6, §7

A. baumannii ATCC 17961 = type: cell-based, Acinetobacter baumannii; conditions: ATCC 17961, 18 h
Experimental: as §1, §2, §3, §4, §5, §6, §7

P. aeruginosa PAO1 = type: cell-based, Pseudomonas aeruginosa; conditions: PAO1, 18 h
Experimental: as §1, §2, §3, §4, §5, §6, §7

S. aureus USA300 = type: cell-based, Staphylococcus aureus; conditions: USA300, 18 h
Experimental: as §1, §2, §3, §4, §5, §6, §7

Sheep red blood cells = type: cell-based; conditions: red cells of sheep, 1 h, 64 μg mL^−1
Experimental: Having ascertained the antimicrobial activity of all synthetic peptides against a panel of ESKAPE pathogens, we next assessed their mammalian toxicity with hemolytic assays using sheep red blood cells. The % hemolysis for all peptides at 64 μg mL^−1 was determined, with the hemolysis induced by the surfactant 0.1% Triton X-100 taken as 100%. […] Hemolysis was <1% for all analogues with a C8 chain or shorter, including the strongest antibacterial peptide C8-Lat (22). Hemolytic activity increased up to C14 (>50% for C14-Lat) and then decreased at longer chain lengths, perhaps due to decreased solubility of peptides or aggregation. […]
Phosphate-Buffered Saline (PBS) containing 0.002% Tween20 (buffer) five times. Then, the red blood cells were normalized to obtain a positive control read-out between 2.5 and 3.0 at 415 nm to stay within the linear range with the maximum sensitivity. A serial dilution of the compounds (128 – 1 µg/mL, 75 µL) was prepared in a 96-well polypropylene plate. The outer border of the plate was filled with 75 µL buffer. Each plate contained a positive control (0.1% Triton-X final concentration, 75 µL) and a negative control (buffer, 75 µL) in triplicate. The normalized blood cells (75 µL) were added and the plates were incubated at 37 °C for 1 h while shaking at 500 rpm. A flat-bottom polystyrene plate with 100 µL buffer in each well was prepared. After incubation, the plates were centrifuged (800 g for 5 min at room temperature) and 25 µL of the supernatant was transferred to their respective wells in the flat-bottom plate. The values obtained from a read-out at 415 nm were corrected for background (negative control) and transformed to a percentage relative to the positive control. […]

CC[C@H](C)[C@@H]1NC(=O)[C@@H](NC(=O)[C@H](Cc2c[nH]c3ccccc23)NC(=O)[C@@H](CCCN)NC(=O)CNC(=O)[C@H](CCCN)NC(=O)[C@@H](CCCN)NC(=O)[C@@H](Cc2c[nH]c3ccccc23)NC(=O)[C@@H](Cc2ccc(O)cc2)NC(=O)[C@@H](CO)NC(=O)CCCCCC(C)C)[C@@H](C)OC(=O)CNC(=O)CNC(=O)[C@H](CC(N)=O)NC1=O [Compound 2, laterocidine] ({Octanoyl(7-Me)}-[dS][dY][dW][dOrn][Orn]G[dOrn]WTINGG; ester 9-C; N-terminus assumed)
Antimicrobial activity (MIC) E. coli ATCC 25922 (E. coli ATCC 25922): 2 µg/mL | Antimicrobial activity (MIC) E. coli ATCC 25922 MCR-1 (E. coli ATCC 25922 MCR-1): 2 µg/mL | Antimicrobial activity (MIC) K. pneumoniae ATCC 13883 (K. pneumoniae ATCC 13883): 2 to 4 µg/mL | Antimicrobial activity (MIC) A. baumannii ATCC 17961 (A. baumannii ATCC 17961): 2 µg/mL | Antimicrobial activity (MIC) P. aeruginosa PAO1 (P. aeruginosa PAO1): 4 µg/mL | Antimicrobial activity (MIC) S. aureus USA300 (S. aureus USA300): >32 µg/mL | % Hemolytic activity, sheep red blood cells (Sheep red blood cells): 0.4%

CC[C@H](C)[C@@H]1NC(=O)[C@@H](NC(=O)[C@H](Cc2c[nH]c3ccccc23)NC(=O)[C@@H](CCCN)NC(=O)CNC(=O)[C@H](CCCN)NC(=O)[C@@H](CCCN)NC(=O)[C@@H](Cc2c[nH]c3ccccc23)NC(=O)[C@@H](Cc2ccc(O)cc2)NC(=O)[C@H](N)CC(N)=O)[C@@H](C)OC(=O)[C@H](CO)NC(=O)CNC1=O [Compound 9]
Antimicrobial activity (MIC) E. coli ATCC 25922 (E. coli ATCC 25922): >32 µg/mL | Antimicrobial activity (MIC) E. coli ATCC 25922 MCR-1 (E. coli ATCC 25922 MCR-1): >32 µg/mL | Antimicrobial activity (MIC) K. pneumoniae ATCC 13883 (K. pneumoniae ATCC 13883): >32 µg/mL | Antimicrobial activity (MIC) A. baumannii ATCC 17961 (A. baumannii ATCC 17961): >32 µg/mL | Antimicrobial activity (MIC) P. aeruginosa PAO1 (P. aeruginosa PAO1): 16 µg/mL | Antimicrobial activity (MIC) S. aureus USA300 (S. aureus USA300): >32 µg/mL | % Hemolytic activity, sheep red blood cells (Sheep red blood cells): 0.2%

CC[C@H](C)[C@@H]1NC(=O)[C@@H](NC(=O)[C@H](Cc2c[nH]c3ccccc23)NC(=O)[C@@H](CCCN)NC(=O)CNC(=O)[C@H](CCCN)NC(=O)[C@@H](CCCN)NC(=O)[C@@H](Cc2c[nH]c3ccccc23)NC(=O)[C@@H](Cc2ccc(O)cc2)NC(=O)[C@@H](CC(N)=O)NC(C)=O)[C@@H](C)OC(=O)[C@H](CO)NC(=O)CNC1=O [Compound 10] (Ac-[dN][dY][dW][dOrn][Orn]G[dOrn]WTIGS; ester 9-C)
Antimicrobial activity (MIC) E. coli ATCC 25922 (E. coli ATCC 25922): >32 µg/mL | Antimicrobial activity (MIC) E. coli ATCC 25922 MCR-1 (E. coli ATCC 25922 MCR-1): >32 µg/mL | Antimicrobial activity (MIC) K. pneumoniae ATCC 13883 (K. pneumoniae ATCC 13883): >32 µg/mL | Antimicrobial activity (MIC) A. baumannii ATCC 17961 (A. baumannii ATCC 17961): >32 µg/mL | Antimicrobial activity (MIC) P. aeruginosa PAO1 (P. aeruginosa PAO1): 8 µg/mL | Antimicrobial activity (MIC) S. aureus USA300 (S. aureus USA300): >32 µg/mL | % Hemolytic activity, sheep red blood cells (Sheep red blood cells): 0.2%

CCCC(=O)N[C@H](CC(N)=O)C(=O)N[C@H](Cc1ccc(O)cc1)C(=O)N[C@H](Cc1c[nH]c2ccccc12)C(=O)N[C@H](CCCN)C(=O)N[C@@H](CCCN)C(=O)NCC(=O)N[C@H](CCCN)C(=O)N[C@@H](Cc1c[nH]c2ccccc12)C(=O)N[C@@H]1C(=O)N[C@@H]([C@@H](C)CC)C(=O)NCC(=O)N[C@@H](CO)C(=O)O[C@@H]1C [Compound 11] (Butyryl-[dN][dY][dW][dOrn][Orn]G[dOrn]WTIGS; ester 9-C)
Antimicrobial activity (MIC) E. coli ATCC 25922 (E. coli ATCC 25922): 32 µg/mL | Antimicrobial activity (MIC) E. coli ATCC 25922 MCR-1 (E. coli ATCC 25922 MCR-1): 32 µg/mL | Antimicrobial activity (MIC) K. pneumoniae ATCC 13883 (K. pneumoniae ATCC 13883): 8 µg/mL | Antimicrobial activity (MIC) A. baumannii ATCC 17961 (A. baumannii ATCC 17961): 32 µg/mL | Antimicrobial activity (MIC) P. aeruginosa PAO1 (P. aeruginosa PAO1): 16 µg/mL | Antimicrobial activity (MIC) S. aureus USA300 (S. aureus USA300): >32 µg/mL | % Hemolytic activity, sheep red blood cells (Sheep red blood cells): 0.1%
